Counter-ions that a name gives are not always drawn. Like-named read-outs stand apart in the source and are kept apart here.
Columns and labels:
Test in all cases: in vitro antibacterial MIC, agar plate dilution
Assay type in all cases: cell-based
[1] = test system: Staphylococcus aureus ATTC 29213; conditions: 35° C.
Procedure, shortened: (§1)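 Minimal inhibitory concentrations came from agar plate dilution in Mueller-Hinton medium. Each organism was delivered at roughly 10^4 CFU by Steers replicator. Plates were read for visible growth after 18 hours at 35° C, values in mcg/ml.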

[2] = test system: Pseudomonas aeruginosa CMC 83-20; conditions: 35° C.
Procedure, shortened: as §1

[3] = test system: Streptococcus faecalis VGH 84-69; conditions: Enterococcus faecalis, VGH8469, 18 h, 35° C., read-out: MIC
Procedure, shortened: as §1

[4] = test system: Staphylococcus aureus VGH 84-45; conditions: 35° C.
Procedure, shortened: as §1

[5] = test system: Proteus rettgeri CMC 84-41; conditions: 18 hours, 35° C.
Procedure, shortened: as §1

[6] = test system: Enterobacter cloacae VGH 84-39; conditions: Enterobacter cloacae, VGH8439, 18 h, 35° C., read-out: MIC
Procedure, shortened: as §1

[7] = test system: Morganella morganii CMC 84-37; conditions: Morganella morganii, CMC8437, 18 h, 35° C., read-out: MIC
Procedure, shortened: as §1

[8] = test system: Pseudomonas aeruginosa VGH 84-4; conditions: 35° C.
Procedure, shortened: as §1

[9] = test system: Staphylococcus aureus CMC 83-131; conditions: Staphylococcus aureus, CMC83131, 18 h, 35° C., read-out: MIC
Procedure, shortened: as §1

[10] = test system: Serratia marcescens CMC 83-74; conditions: Serratia marcescens, CMC8374, 18 h, 35° C., read-out: MIC
Procedure, shortened: as §1

[11] = test system: Escherichia coli ATCC 25922; conditions: 35° C.
Procedure, shortened: as §1

[12] = test system: Streptococcus faecalis CMC 83-120; conditions: Enterococcus faecalis, CMC83120, 18 h, 35° C., read-out: MIC
Procedure, shortened: as §1

[13] = test system: Staphylococcus aureus Smith; conditions: 35° C.
Procedure, shortened: as §1

[14] = test system: Enterobacter cloacae K 84-10; conditions: 35° C.
Procedure, shortened: as §1

[15] = test system: Morganella morganii CMC 84-38; conditions: 35° C.
Procedure, shortened: as §1

[16] = test system: Escherichia coli CMC 84-11; conditions: 18 hours, 35° C.
Procedure, shortened: as §1

[17] = test system: Providencia stuarti CMC 83-3; conditions: Providencia, CMC833, 18 h, 35° C., read-out: MIC
Procedure, shortened: as §1

Escherichia coli LL 311 = conditions: 35° C.
Procedure, shortened: as §1

[18] = test system: Staphylococcus aureus K 82-26; conditions: 35° C.
Procedure, shortened: as §1

[19] = test system: Klebsiella pneumoniae CMC 84-31; conditions: Klebsiella pneumoniae, CMC8431, 18 h, 35° C., read-out: MIC
Procedure, shortened: as §1

[20] = test system: Escherichia coli VGH 84-19; conditions: Escherichia coli, VGH8419, 18 h, 35° C., read-out: MIC
Procedure, shortened: as §1

[21] = test system: Proteus rettgeri IO 83-21; conditions: Providencia rettgeri, IO8321, 18 h, 35° C., read-out: MIC
Procedure, shortened: as §1

[22] = test system: Klebsiella pneumoniae MOR 84-24; conditions: Klebsiella pneumoniae, MOR8424, 18 h, 35° C., read-out: MIC
Procedure, shortened: as §1

[23] = test system: Enterobacter cloacae MOR 84-30; conditions: Enterobacter cloacae, MOR8430, 18 h, 35° C., read-out: MIC
Procedure, shortened: as §1

[24] = test system: Serratia marcescens MOR 84-41; conditions: Serratia marcescens, MOR8441, 18 h, 35° C., read-out: MIC
Procedure, shortened: as §1

[25] = test system: Streptococcus faecalis UCI 85-30; conditions: Enterococcus faecalis, UCI8530, 18 h, 35° C., read-out: MIC
Procedure, shortened: as §1

[26] = test system: Staphylococcus aureus VGH 84-47; conditions: 35° C.
Procedure, shortened: as §1

[27] = test system: Streptococcus faecalis UCI 85-19; conditions: 35° C.
Procedure, shortened: as §1

[28] = test system: Escherichia coli MOR 84-20; conditions: Escherichia coli, MOR8420, 18 h, 35° C., read-out: MIC
Procedure, shortened: as §1

[29] = test system: Serratia marcescens VGH 84-30; conditions: 35° C.
Procedure, shortened: as §1

[30] = test system: Escherichia coli CMC 84-50; conditions: Escherichia coli, CMC8450, 18 h, 35° C., read-out: MIC
Procedure, shortened: as §1

[31] = test system: Serratia marcescens IO 83-63; conditions: IO8363, 18 hours, 35° C.
Procedure, shortened: as §1

[32] = test system: Pseudomonas aeruginosa LL-1244; conditions: 35° C.
Procedure, shortened: as §1

[33] = test system: Morganella morganii MOR 84-45; conditions: Morganella morganii, MOR8445, 18 h, 35° C., read-out: MIC
Procedure, shortened: as §1

[34] = test system: Morganella morganii VHG 84-12; conditions: Morganella morganii, VHG8412, 18 h, Morganella morganii VHG 84-12 (VGH 84-12 for Example 131), 35° C., read-out: MIC
Procedure, shortened: as §1

[35] = test system: Serratia marcescens K 84-18; conditions: 18 hours, 35° C.
Procedure, shortened: as §1

Citrobacter div. K 82-24 = conditions: 35° C.
Procedure, shortened: as §1

[36] = test system: Pseudomonas aeruginosa K 84-16; conditions: Pseudomonas aeruginosa, K8416, 18 h, 35° C., read-out: MIC
Procedure, shortened: as §1

[37] = test system: Streptococcus faecalis VGH 84-65; conditions: 35° C.
Procedure, shortened: as §1

[38] = test system: Pseudomonas aeruginosa VGH 84-3; conditions: Pseudomonas aeruginosa, VGH843, 18 h, 35° C., read-out: MIC
Procedure, shortened: as §1

[39] = test system: Klebsiella pneumoniae IO 83-5; conditions: Klebsiella pneumoniae, IO835, 18 h, 35° C., read-out: MIC
Procedure, shortened: as §1

[40] = Escherichia coli, ATCC25922, 18 h, read-out: MIC

Measured: MIC

O=C(O)c1cn(C2CC2)c2cc(N3CCNC(C4CC4)C3)c(F)cc2c1=O (centres unmarked) [Example 96, 7-(3-Cyclopropyl-1-piperazinyl) -1-cyclopropyl-6-fluoro-1,4-dihydro-4-oxo-3-quinolinecarboxylic acid]
0.015 µg/mL: [6] | [11]; [40] | [14]; Enterobacter cloacae, K8410, 18 h, read-out: MIC | [19] | [30]
2 µg/mL: [17] | [25] | [36]
0.12 µg/mL: [21] | [34]
0.3 µg/mL: [15]; 18 hours
0.5 µg/mL: [27]; 18 hours | [37]; Enterococcus faecalis, VGH8465, 18 h, read-out: MIC
0.03 µg/mL: [5] | [7] | Escherichia coli LL 311; 18 hours | [22] | [39]
> 0.015 µg/mL: [16] | [35]
0.25 µg/mL: [1]; 18 hours | [9] | [18]; 18 hours | [23] | [31]
0.008 µg/mL: [20] | [28] | [33] | Citrobacter div. K 82-24; 18 hours
4 µg/mL: [10] | [38]
0.06 µg/mL: [4]; Staphylococcus aureus, VGH8445, 18 h, read-out: MIC | [13]; Staphylococcus aureus, 18 h, read-out: MIC | [24] | [26]; 18 hours
1 µg/mL: [2]; 18 hours | [3] | [8]; Pseudomonas aeruginosa, VGH844, 18 h, read-out: MIC | [12] | [29]; 18 hours | [32]; 18 hours

O=C(O)c1cn(C2CC2)c2cc(N3CCNC(c4ccsc4)C3)c(F)cc2c1=O (centres unmarked) [Example 98, 1-Cyclopropyl-6-fluoro-1,4-dihydro-4-oxo-7-[3-(3-thienyl)-1-piperazinyl]-3-quinolinecarboxylic acid, monohydrochloride]
0.06 µg/mL: [1]; Staphylococcus aureus, ATTC29213, 18 h, read-out: MIC | [7] | [11]; [40] | [14]; 18 hours, monohydrochloride
0.12 µg/mL: [1]; 18 hours, monohydrochloride | [5]; monohydrochloride | [6] | [11]; 18 hours, monohydrochloride | [15]; Morganella morganii, CMC8438, 18 h, read-out: MIC | [18]; Staphylococcus aureus, K8226, 18 h, read-out: MIC | [19] | [20] | [26]; Staphylococcus aureus, VGH8447, 18 h, read-out: MIC | [28] | [30] | [33] | Citrobacter div. K 82-24; Citrobacter, DIV.K8224, 18 h, read-out: MIC
2 µg/mL: [8]; 18 hours, monohydrochloride | [32]; Pseudomonas aeruginosa, LL1244, 18 h, read-out: MIC
0.03 µg/mL: [4]; 18 hours, monohydrochloride | [13]; 18 hours, monohydrochloride | [16]; monohydrochloride | Escherichia coli LL 311; Escherichia coli, LL311, 18 h, read-out: MIC
0.5 µg/mL: [3] | [21] | [27]; Enterococcus faecalis, UCI8519, 18 h, read-out: MIC | [37]; 18 hours, monohydrochloride
1 µg/mL: [12] | [23] | [25] | [31]
4 µg/mL: [2]; Pseudomonas aeruginosa, CMC8320, 18 h, read-out: MIC | [29]; Serratia marcescens, VGH8430, 18 h, read-out: MIC | [36]
0.25 µg/mL: [22] | [24] | [34] | [35]; monohydrochloride | [39]
16 µg/mL: [38]
8 µg/mL: [10] | [17]
